For orientation: IC50 means the midpoint of a concentration-inhibition curve.

The target of one assay is T1, PTPN2 (i.e., TC-PTP) (Homo sapiens, UniProt P17706).
T1 sequence (P17706 1-415): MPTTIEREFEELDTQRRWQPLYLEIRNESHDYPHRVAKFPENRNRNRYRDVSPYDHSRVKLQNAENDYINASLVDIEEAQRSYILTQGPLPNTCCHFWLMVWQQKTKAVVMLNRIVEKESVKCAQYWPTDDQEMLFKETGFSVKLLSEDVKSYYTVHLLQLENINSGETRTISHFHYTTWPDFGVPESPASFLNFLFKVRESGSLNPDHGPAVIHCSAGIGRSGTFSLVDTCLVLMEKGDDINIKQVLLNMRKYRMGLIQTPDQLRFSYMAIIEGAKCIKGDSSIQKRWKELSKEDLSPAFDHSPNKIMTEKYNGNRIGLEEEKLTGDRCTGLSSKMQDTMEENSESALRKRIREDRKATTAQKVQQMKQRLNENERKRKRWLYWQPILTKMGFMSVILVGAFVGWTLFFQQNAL
Nature of the assay: Phosphatase activity assay (DiFMUP substrate), PTPN2. Type of assay: biochemical. The following applies: compounds binned ≤1 uM or >1 uM. The gist of the method:
(§1)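 Enzyme (e.g. PTPN2 0.025 ng/ul) mixed about 2 min with compound at 10 serial concentrations in 50 mM HEPES pH 7.5, 150 mM NaCl, 0.5 mM EDTA, 1 mM DTT, 0.001% Tween-20 at room temperature. DiFMUP added at each enzyme's Km (about 45 μM for PTPN2). DiFMU fluorescence (ex 360/em 450 nm) followed 15-30 min; IC50 from 4-parameter fit of rates.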

For the next assay, the target named is T2, PTPN1 (i.e., PTP1B) (Homo sapiens, UniProt P18031).
T2 sequence (P18031 1-435): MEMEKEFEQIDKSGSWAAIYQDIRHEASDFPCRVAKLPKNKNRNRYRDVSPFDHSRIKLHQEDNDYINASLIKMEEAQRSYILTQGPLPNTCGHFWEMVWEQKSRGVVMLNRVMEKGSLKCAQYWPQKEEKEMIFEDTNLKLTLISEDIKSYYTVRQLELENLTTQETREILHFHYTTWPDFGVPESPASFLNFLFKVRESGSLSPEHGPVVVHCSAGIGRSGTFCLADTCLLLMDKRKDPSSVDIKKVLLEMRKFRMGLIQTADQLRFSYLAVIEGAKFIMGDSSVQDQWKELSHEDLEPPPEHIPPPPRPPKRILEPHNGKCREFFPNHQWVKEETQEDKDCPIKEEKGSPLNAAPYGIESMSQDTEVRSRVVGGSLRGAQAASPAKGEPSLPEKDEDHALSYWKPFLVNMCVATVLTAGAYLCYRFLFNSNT
Nature of the assay: Phosphatase activity assay (DiFMUP substrate), PTP1B. Particulars: compounds binned ≤1 uM or >1 uM. Type of assay: biochemical. The gist of the method: as §1

As to `O=C1CN(c2c(O)ccc(-c3coc(-c4ccccc4)n3)c2F)S(=O)(=O)N1` [Compound 173, 5-(2-fluoro-6-hydroxy-3-(2-phenyloxazol-4-yl)phenyl)-1,2,5-thiadiazolidin-3-one 1,1-dioxide], the half-inhibitory concentration (IC50) was at most 1 µM on PTPN2 (i.e., TC-PTP) and at most 1 µM at PTPN1 (i.e., PTP1B).
`CC(C)CCN1CCCC(c2ccc(O)c(N3CC(=O)NS3(=O)=O)c2F)C1` (stereo not drawn) [Compound 198, 5-(2-fluoro-6-hydroxy-3-(1-isopentylpiperidin-3-yl)phenyl)-1,2,5-thiadiazolidin-3-one 1,1-dioxide]: the IC50 on PTPN2 (i.e., TC-PTP) is above 1 µM; on PTPN1 (i.e., PTP1B), at most 1 µM.
Turning to `O=C1CN(c2c(O)ccc(-c3cnn(S(=O)(=O)C4CC4)c3)c2F)S(=O)(=O)N1` [Compound 342, 5-(3-(1-(cyclopropylsulfonyl)-1H-pyrazol-4-yl)-2-fluoro-6-hydroxyphenyl)-1,2,5-thiadiazolidin-3-one 1,1-dioxide], the IC50 at PTPN2 (i.e., TC-PTP) was at most 1 µM; on PTPN1 (i.e., PTP1B), at most 1 µM.
For `CC1C=C(c2ccc(O)c(N3CC(=O)NS3(=O)=O)c2F)CN1` (stereo not drawn) [Compound 282, 5-(2-fluoro-6-hydroxy-3-(5-methyl-2,5-dihydro-1H-pyrrol-3-yl)phenyl)-1,2,5-thiadiazolidin-3-one 1,1-dioxide], the 50% inhibitory concentration (IC50) on PTPN2 (i.e., TC-PTP) is at most 1 µM; on PTPN1 (i.e., PTP1B), at most 1 µM.
For `CO[C@H]1CC[C@@H](n2cc(-c3ccc(O)c(N4CC(=O)NS4(=O)=O)c3F)cn2)CC1` [Compound 383, 5-(2-fluoro-6-hydroxy-3-(1-((1s,4s)-4-methoxycyclohexyl)-1H-pyrazol-4-yl)phenyl)-1,2,5-thiadiazolidin-3-one 1,1-dioxide], the IC50 on PTPN2 (i.e., TC-PTP) is at most 1 µM; on PTPN1 (i.e., PTP1B), at most 1 µM.
`O=C1CN(c2c(O)ccc(-c3cnn(C4CC5(CCC5)C4)c3)c2F)S(=O)(=O)N1` [Compound 242, 5-(2-fluoro-6-hydroxy-3-(1-(spiro[3.3]heptan-2-yl)-1H-pyrazol-4-yl)phenyl)-1,2,5-thiadiazolidin-3-one 1,1-dioxide]: the IC50 on PTPN2 (i.e., TC-PTP) is at most 1 µM; on PTPN1 (i.e., PTP1B), at most 1 µM.

For the origin of these results see US20240398828A1, “HETERO-ATOM CONTAINING COMPOUNDS AND USES THEREOF” (Kumquat Biosciences Inc., priority 2021, published 2024).
